This note sets out measurements from patent US5198419A, “Formulated medicines for enhancing the efficacy of beta-lactam antibiotics in prophylaxis and treatment against infectious disease due to pathogenic bacteria” (Immuno Japan Inc., priority 1989, dated 1993).

Molecules are shown by their SMILES.

The subject of one assay is Proteus mirabilis GN79. In words: Example 7: experimental infection in mice, ampicillin with or without native lactoferrin. The note with it: GN79, po, 168 h, 1.3 × 10^6 CFU/mouse. The format is in vivo, strain ddY. The method, then: (§1) For ED50 values, a range of amounts of antibiotics is given in the examples (e.g., penicillin G: 0.4, 0.2, 0.1, 0.05 mg/mouse). To calculate the ED50, groups of mice in the monotherapy groups and groups of mice in the combined therapy groups received the indicated amount of antibiotic (e.g., one group received 0.4 mg/mouse of penicillin G, one group received 0.2 mg/mouse of penicillin G, one group received 0.1 mg/mouse of penicillin G, one group received 0.05 mg/mouse of penicillin G).
Male mice, strain ddY, five weeks old, were randomly allocated into groups (n=10), and were intraperitoneally injected with Proteus mirabilis GN79 (1.3×10^6 CFU/mouse) or with Escherichia coli #11 (1.7×10^6 CFU/mouse) or with Klebsiella pneumoniae 3K25 (1.5×10^6 CFU/mouse). The doses are 1,000 times greater than the minimum lethal dose. Immediately after the injection, the first eight groups were orally given ampicillin, the second eight groups were orally given cephalexin, and the third eight groups were orally given cefaclor, respectively, each simultaneously with or without native lactoferrin (1 mg/mouse) in 0.2 ml of distilled water (see Table 7). All the mice were fed ad libitum and observed for one week under the same conditions as described in Example 1.

The test system of a further assay is Escherichia coli #11. Nature of the assay: Example 6: experimental infection in mice, ampicillin with or without apolactoferrin. The format is in vivo, strain ddY. The note with it: p.o. immediately after 1.2×10^6 CFU/mouse. As for the experimental part:
as §1
Male mice, strain ddY, five weeks old, weighing an average of 21.5 g, were randomly allocated into groups (n=10), and they were intraperitoneally injected with Escherichia coli #11, 1.2×10^6 CFU/mouse. Immediately after the injection, the untreated control group was orally given 0.2 ml of distilled water, the second through the fifth groups were treated once orally by ampicillin (8, 4, 2 and 1 mg/mouse), and the sixth through the ninth groups with ampicillin (4, 2, 1 and 0.5 mg/mouse) plus apolactoferrin (1 mg/mouse) in 0.2 ml of distilled water. The mice were fed ad libitum and observed for one week under the same conditions as described in Example 1. […] It is apparent from the results that lactoferrin not only potentiates the efficacy of the cephalosporin class but also the penicillin class of antibiotics.

For a further assay, the system named is bacteria in urine. Nature of the assay: Example 11: patients with chronic urinary tract infection, cefaclor with or without apolactoferrin. The note with it: four weeks. The class given is in vivo, human patients. As for the experimental part: Seventeen patients (male 6, female 11, an average 63.5 years old) with chronic urinary tract infection were randomly allocated into two groups. All these patients excreted at least one species of bacteria in their urine for longer than four weeks, although they were treated orally with antibacterial agents. The first group (n=9) was treated for four weeks with 1,200 mg of cefaclor (400 mg, three times a day) and the second group (n=8) with the same dose of cefaclor (three times a day) combined with 600 mg of apolactoferrin (200 mg, three times a day). Urine specimens were collected every one week and the species of bacteria were identified and the quantity of excreted bacteria determined.

Assay [1] concerns Klebsiella pneumoniae 3K25. Nature of the assay: Example 7: experimental infection in mice, cefaclor with or without native lactoferrin. The class given is in vivo, strain ddY. The note with it: Klebsiella pneumoniae, 3K25, po, 168 h, 1.5 × 10^6 CFU/mouse.
Assay [2] relates to Klebsiella pneumoniae strain 3K25. In words: Example 3: experimental infection in mice, cefaclor with or without hololactoferrin. The class given is in vivo, strain ICR. The note with it: p.o. 1 h after 1×10^6 CFU/mouse. The method, then:
as §1
Sixty male mice, strain ICR, five weeks of age, weighing 21.3±1.5 g (mean±the standard deviation) were randomly allocated into ten groups (n=6), and intraperitoneally injected with Klebsiella pneumoniae strain 3K25, 1×10^6 CFU/mouse. One hour after the injection, the first group was orally given 0.2 ml of physiological saline, the second group orally given hololactoferrin (100% ferric ion saturated lactoferrin, 0.4 mg/mouse), the third through the sixth groups orally given cefaclor (2.0, 1.0, 0.5 and 0.25 mg/mouse each) in 0.2 ml of saline, and the seventh through the tenth groups orally given cefaclor (2.0, 1.0, 0.5 and 0.25 mg/mouse each) and hololactoferrin (100% iron saturated lactoferrin, 0.4 mg/mouse) in 0.2 ml of saline. The mice were fed ad libitum and observed for one week under the same conditions as described in Example 1.

Assay [3] has the same test system. In words: Example 4: experimental infection in mice, cefotetan with or without native lactoferrin. The format is in vivo. The note with it: p.o. 1 h after 1×10^6 CFU/mouse. The method, then:
as §1
The experimental design is similar to that of Example 3. The mice groups (n=6) were intraperitoneally injected with Klebsiella pneumoniae strain 3K25, 1×10^6 CFU/mouse, and one hour after the injection, orally active cephalosporin, cefotetan (2.0, 1.0, 0.5 and 0.25 mg/mouse) was orally administered with or without native lactoferrin (0.4 mg/mouse) in 0.2 ml physiological saline.

Consider `CC1(C)S[C@@H]2[C@H](NC(=O)[C@H](N)c3ccccc3)C(=O)N2[C@H]1C(=O)O` [ampicillin], for which the ED50 in the assay with Proteus mirabilis GN79 (ampicillin alone) was determined as 133 mg/kg; with Proteus mirabilis GN79 (ampicillin with lactoferrin (1 mg/mouse)), 24.9 mg/kg; in the assay on Escherichia coli #11 (ampicillin combined therapy with apolactoferrin (1 mg/mouse)), 0.75 mg/mouse; in the assay with Escherichia coli #11 (ampicillin monotherapy), 6.02 mg/mouse.

In the case of `N[C@@H](C(=O)N[C@@H]1C(=O)N2C(C(=O)O)=C(Cl)CS[C@H]12)c1ccccc1` [cefaclor], the “bacteria in the urine” value in the assay on bacteria in urine (cefaclor 1,200 mg combined with 600 mg apolactoferrin daily) is “bacteria were no longer detected in the urine”. In the assay with bacteria in urine (cefaclor monotherapy 1,200 mg daily), the “patients still excreting bacteria” value is on record as “six patients out of nine”. The “efficacy of combined therapy versus monotherapy” value in the assay on bacteria in urine (cefaclor with apolactoferrin) is on record as “significantly more effective”. Further, the ED50 in assay [1] (cefaclor alone) stood at 28.5 mg/kg; in assay [1] (cefaclor with lactoferrin (1 mg/mouse)) it was 10 mg/kg; in assay [2] (cefaclor combined therapy with hololactoferrin (0.4 mg/mouse)) it was 0.30 mg/mouse; in assay [2] (cefaclor monotherapy) it was 0.63 mg/mouse.

With `CO[C@@]1(NC(=O)C2SC(=C(C(N)=O)C(=O)O)S2)C(=O)N2C(C(=O)O)=C(CSc3nnnn3C)CS[C@@H]21` (stereo partly shown) [cefotetan], the values for the ED50 in assay [3] (cefotetan combined therapy with native lactoferrin (0.4 mg/mouse)) and in assay [3] (cefotetan monotherapy) were 0.16 mg/mouse and 0.50 mg/mouse, respectively.
